Measured values reported in patent US6759420B1, “Arylalkanoyl derivatives, processes for their preparation, their use and pharmaceutical compositions containing them” (Aventis Pharma Deutschland GmbH, priority 1999, dated 2004).
Structures can show the parent of a compound that is named as a salt.

Biological target: factor Xa (Homo sapiens, UniProt P00742)
Test: Factor Xa assay (Test 1a), chromogenic
Assay type: biochemical
Set-up: purchased Enzyme Research Laboratories, Inc; South Bend, Ind
Conditions: in vitro factor Xa assay Test 1a; human factor Xa 0.5 nM, substrate S-2765 140 μM, 25° C.; Ki from IC50 corrected for substrate competition
Description: The ability of a compound of formula (I) to inhibit factor Xa, thrombin, plasmin, elastase, and trypsin may be assessed by determining the concentration of compound of formula (I) that inhibits enzyme activity by 50% (IC50). Purified enzymes are used in chromogenic assays. To determine the inhibition constant, the IC50 value is corrected for competition with substrate using the formula:
Ki=IC50×(1/{1+((substrate concentration)/substrate Km)})
where Km is the Michaelis-Menten constant. Y. -C. Chen and W. H. Prusoff, Biochem. Pharmacol. 22: […] (1973), which is incorporated herein by reference.
TBS-PEG buffer (50 mM Tris-Cl, pH 7.8, 200 mM NaCl, 0.05% (w/v) PEG-8000, 0.02% (w/v) NaN3) is used for this assay. The IC50 is determined by combining in appropriate wells of a Costar half-area microtiter plate 25 μl human factor Xa (Enzyme Research Laboratories, Inc.; South Bend, Ind.) in TBS-PEG; 40 μl 10% (v/v) DMSO in TBS-PEG (uninhibited control) or various concentrations of the compound to be tested diluted in 10% (v/v) DMSO in TBS-PEG; and substrate S-2765 (N-benzyloxycarbonyl-D-Arg-Gly-L-Arg-p-nitroanilide; Kabi Pharmacia, Inc.; Franklin Ohio) in TBS-PEG.
The assays are performed by pre-incubating the compound of formula (I) plus enzyme for 10 min, then the assay is initiated by adding substrate to obtain a final volume of 100 μl. The initial velocity of chromogenic substrate hydrolysis is measured by the change in absorbance at 405 nm using a Bio-tek Instruments kinetic plate reader (Ceres UV900HDi) at 25° C. during the linear portion of the time course (usually 1.5 min after addition of substrate). The concentration of inhibitor that causes a 50% decrease in the rate of substrate hydrolysis is predicted by linear regression after plotting the relative rates of hydrolysis (compared to the uninhibited control) versus the log of the compound of formula (I) concentration. The enzyme concentration is 0.5 nM and substrate concentration is 140 μM.

Chain of factor Xa (P00742 235-488 limits assumed): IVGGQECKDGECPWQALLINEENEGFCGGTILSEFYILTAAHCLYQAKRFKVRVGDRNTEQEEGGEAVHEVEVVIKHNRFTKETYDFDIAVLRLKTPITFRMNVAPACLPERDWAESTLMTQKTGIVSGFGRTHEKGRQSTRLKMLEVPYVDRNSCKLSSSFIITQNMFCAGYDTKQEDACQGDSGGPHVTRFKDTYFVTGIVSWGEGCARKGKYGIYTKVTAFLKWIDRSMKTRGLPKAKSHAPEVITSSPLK
Chain of factor Xa (P00742 41-179 limits assumed): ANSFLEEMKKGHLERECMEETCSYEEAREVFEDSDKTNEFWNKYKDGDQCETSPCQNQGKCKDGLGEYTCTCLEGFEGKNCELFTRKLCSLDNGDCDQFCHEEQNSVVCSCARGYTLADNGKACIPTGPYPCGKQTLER

| Compound | Ki [nM] |
| --- | --- |
| CCC(C)[C@@H](C(=O)N[C@@H](CCCNC(=N)N)C(N)=O)N(C)C(=O)C(Cc1ccc(C(=N)N)cc1)c1cccnc1 (mixture of isomers) [Example 18, 2-(S)-{[3-(4-Carbamimidoyl-phenyl)-2-(R,S)-pyridin-3-yl-propionyl]-methyl-amino}-3-methyl-pentanoic acid (1-(S)-carbamoyl-4-guanidino-butyl)-amide trifluoroacetic acid salt] | 310 |
| CC(Cc1ccc(C(=N)N)cc1)(C(=O)N[C@@H](COCc1ccccc1)C(=O)N[C@@H](CCCNC(=N)N)C(N)=O)c1ccccc1 (mixture of isomers) [Example 70, 2-(S)-{3-Benzyloxy-2-(S)-[3-(4-carbamimidoyl-phenyl)-2-(R,S)-methyl-2-phenyl-propionylamino]-propionylamino}-5-guanidino-pentanoic acid amide trifluoroacetic acid salt] | 30 |
| C[n+]1ccc(CNC(=O)[C@@H](NC(=O)C(Cc2ccc(C(=N)N)cc2)c2ccccc2)C2CCCCC2)cc1 (single isomer, unassigned; less polar) [Example 86] | 600 |
| N=C(N)NCCC[C@H](NC(=O)[C@H](CO)NC(=O)C(Cc1ccc(C(=N)N)cc1)c1ccccc1)C(N)=O (mixture of isomers) [Example 57, 2-(S)-{2-(S)-[3-(4-Carbamimidoyl-phenyl)-2-(R,S)-phenyl-propionylamino]-3-hydroxy-propionylamino}-5-guanidino-pentanoic acid amide trifluoroacetic acid salt] | 1930 |
| N=C(N)NCCC[C@H](NC(=O)[C@H](Cc1ccc2ccccc2c1)NC(=O)C(Cc1ccc(C(=N)N)cc1)c1ccc2ccccc2c1)C(N)=O (mixture of isomers) [Example 39, 2-(S)-{2-(S)-[3-(4-Carbamimidoyl-phenyl)-2-(R,S)-naphthalen-2-yl-propionyl-amino]-3-naphthalen-2-yl-propionylamino}-5-guanidino-pentanoic acid amide trifluoroacetic acid salt] | 2890 |
| CC(C)OC(=O)[C@H](CCCNC(=N)N)NC(=O)[C@@H](NC(=O)C(Cc1ccc(C(=N)N)cc1)c1cccc(Br)c1)C1CCCCC1 (single isomer, unassigned; less polar) [Example 242] | 2 |
| N=C(N)c1ccc(CC(C(=O)N[C@H](C(=O)NCC2CCN(C(=N)N)CC2)C2CCCCC2)c2ccccc2)cc1 (single isomer, unassigned; less polar) [Example 222] | 43 |
| N=C(N)NCCC[C@H](NC(=O)C(NC(=O)C(Cc1ccc(C(=N)N)cc1)C1CCCCC1)C1CCCCC1)C(=O)NCc1ccncc1 (stereo partly drawn) [Example 194, 2-(S)-{2-[3-(4-Carbamimidoyl-phenyl)-2-cyclohexyl-propionylamino]-2-cyclohexyl-acetylamino}-5-guanidino-pentanoic acid (pyridin-4-ylmethyl)-amide trifluoroacetic acid salt] | 34 |
| N=C(N)NCCC[C@H](NC(=O)[C@H](CCC(=O)O)NC(=O)C(Cc1ccc(C(=N)N)cc1)c1ccc2ccccc2c1)C(=O)N[C@@H](CC1CCCCC1)C(N)=O (mixture of isomers) [Example 82, 4-(S)-[3-(4-Carbamimidoyl-phenyl)-2-(R,S)-naphthalen-2-yl-propionylamino]-4-[1-(S)-(1-(S)-carbamoyl-2-cyclohexyl-ethylcarbamoyl)-4-guanidino-butylcarbamoyl]-butyric acid trifluoroacetic acid salt] | 2840 |
| COc1ccc(CNC(=O)C(CCCNC(=N)N)NC(=O)C(NC(=O)C(Cc2ccc(C(=N)N)cc2)C2CCCCC2)C2CCCCC2)cc1 [Example 202, 2-(S)-{2-[3-(4-Carbamimidoyl-phenyl)-2-cyclohexyl-propionylamino]-2-cyclohexyl-acetylamino}-5-guanidino-pentanoic acid 4-methoxy-benzylamide trilfuoroacetic acid salt] | 28 |
| CN(C(=O)C(Cc1ccc(C(=N)N)cc1)c1cccnc1)[C@@H](Cc1ccccc1)C(=O)N[C@@H](CCCNC(=N)N)C(N)=O (mixture of isomers) [Example 26, 2-(S)-(2-(S)-{[3-(4-Carbamimidoyl-phenyl)-2-(R,S)-pyridin-3-yl-propionyl]-methyl-amino}-3-phenyl-propionylamino)-5-guanidino-pentanoic acid amide trifluoroacetic acid salt] | 1070 |
| N=C(N)c1ccc(CC(C(=O)NC(C(=O)NCC2CCN(C(=N)N)CC2)C2CCCCC2)c2ccc3ccccc3c2)cc1 (single isomer, unassigned; less polar) [Example 170] | 33 |
| N=C(N)c1ccc(CC(C(=O)N[C@H](C(=O)NCC2CCN(C(=N)N)CC2)C2CCCCC2)c2cccc3ccccc23)cc1 (single isomer, unassigned; less polar) [Example 241] | 25 |
| N=C(N)c1ccc(CNC(=O)[C@@H](NC(=O)C(Cc2ccc(CN)cc2)C2CCCCC2)C2CCCCC2)cc1 (mixture of isomers) [Example 138, 3-(4-Aminomethyl-phenyl)-N-[(S)-(4-carbamimidoyl-benzyl-carbamoyl)-cyclohexyl-methyl]-2-(R,S)-cyclohexyl-propionamide acetic acid salt] | 55 |
| N=C(N)c1ccc(CC(C(=O)N[C@H](C(=O)NCC2CCC(C(=N)N)CC2)C2CCCCC2)c2cccc(Br)c2)cc1 (single isomer, unassigned; less polar) [Example 219] | 5 |

The remaining compounds from weak to strong by Ki, led by results:

| Ki [nM] | Compound |
| --- | --- |
| 23 | N=C(N)c1ccc(CNC(=O)C(NC(=O)C(Cc2ccc(C(=N)N)cc2)c2cccc(F)c2)C2CCCCC2)cc1 (single isomer, unassigned; less polar) [Example 149] |
| 13 | CC(C)OC(=O)[C@H](CCCNC(=N)N)NC(=O)[C@@H](NC(=O)C(Cc1ccc(C(=N)N)cc1)C1CCCCC1)C1CCCCC1 (mixture of isomers) [Example 181, 2-(S)-{2-[3-(4-Carbamimidoyl-phenyl)-2-(R,S)-cyclohexyl-propionylamino]-2-(S)-cyclohexyl-acetylamino}-5-guanidino-pentanoic acid isopropyl ester hydrochloric acid salt] |
| 11 | Cc1cccc(C(Cc2ccc(C(=N)N)cc2)C(=O)NC(C(=O)NCC2CCN(C(=N)N)CC2)C2CCCCC2)c1 (single isomer, unassigned; less polar) [Example 159] |
| 9.1 | N=C(N)NCCC[C@H](NC(=O)[C@@H](NC(=O)C(Cc1ccc(C(=N)N)cc1)c1ccc2ccccc2c1)C1CCCCC1)C(N)=O (mixture of isomers) [Example 95, 2-(S)-{2-(S)-[3-(4-Carbamimidoyl-phenyl)-2-(R,S)-naphthalen-2-yl-propionylamino]-2-cyclohexyl-acetylamino}-5-guanidino-pentanoic acid amide trifluoroacetic acid salt] |
| 8.4 | CC(Cc1ccc(C(=N)N)cc1)(C(=O)N[C@H](C(=O)N[C@@H](CCCNC(=N)N)C(N)=O)C1CCCCC1)c1ccccc1 (mixture of isomers) [Example 96, 2-(S)-{2-(S)-[3-(4-Carbamimidoyl-phenyl)-2-(R,S)-methyl-2-phenyl-propionylamino]-2-cyclohexyl-acetylamino}-5-guanidino-pentanoic acid amide trifluoroacetic acid salt] |
| 5 | N=C(N)NCCCC(NC(=O)C(NC(=O)C(Cc1ccc(C(=N)N)cc1)C1CCCCC1)C1CCCCC1)C(=O)O (single isomer, unassigned; less polar) [Example 6] |
| 4 | CC(=N)N1CCC(CNC(=O)C(NC(=O)C(Cc2ccc(C(=N)N)cc2)C2CCCCC2)C2CCCCC2)CC1 (single isomer, unassigned; less polar) [Example 137] |
| 4 | N=C(N)c1ccc(CNC(=O)C(NC(=O)C(Cc2ccc(C(=N)N)cc2)c2cccc(Br)c2)C2CCCCC2)cc1 (single isomer, unassigned; less polar) [Example 151] |
| 3 | N=C(N)c1ccc(CNC(=O)[C@@H](NC(=O)C(Cc2ccc(C(=N)N)cc2)c2ccc3ccccc3c2)C2CCCCC2)cc1 (mixture of isomers) [Example 228, N-[(S)-(4-Carbamimidoyl-benzylcarbamoyl)-cyclohexyl-methyl]-3-(4-carbamimidoyl-phenyl)-2-(R,S)-naphthalen-2-yl-propionamide hydrochloric acid salt] |
| 2 | N=C(N)NCCCC(NC(=O)C(NC(=O)C(Cc1ccc(C(=N)N)cc1)C1CCCCC1)C1CCCCC1)C(N)=O (single isomer, unassigned; less polar) [Example 4] |
| 1 | N=C(N)c1ccc(CC(C(=O)NC(C(=O)NCC2CCN(C(=N)N)CC2)C2CCCCC2)c2cccc(Cl)c2)cc1 (single isomer, unassigned; less polar) [Example 176] |
